From ChEMBL document CHEMBL1687927, “Design and optimization of potent and orally bioavailable tetrahydronaphthalene Raf inhibitors” (J Med Chem, 2011) come the findings set out here.

Each structure is given as a SMILES string. Active and inactive are the calls of the source. The calls are words filed in the database; no cut-off is given here.

Data set [1] has as its target T1, Serine/threonine-protein kinase B-raf (Homo sapiens, UniProt P15056, V600E). Description: Inhibition of raf kinase in human A375 cells assessed as decrease in MEK-mediated ERK phosphorylation after 3 hrs using 3,3',5,5'-tetramethylbenzidine liquid substrate system. Format: cell-based. Conditions: a-375.
For data set [2], the target named is T1, Serine/threonine-protein kinase B-raf.
The target in data set [3] is RAF proto-oncogene serine/threonine-protein kinase (Homo sapiens, UniProt P04049). Description: Inhibition of C-Raf assessed as reduction in [33P]ATP incorporation into biotinylated substrate peptide after 3 hrs by flash plate assay.
Chain of RAF proto-oncogene serine/threonine-protein kinase (P04049 whole entry): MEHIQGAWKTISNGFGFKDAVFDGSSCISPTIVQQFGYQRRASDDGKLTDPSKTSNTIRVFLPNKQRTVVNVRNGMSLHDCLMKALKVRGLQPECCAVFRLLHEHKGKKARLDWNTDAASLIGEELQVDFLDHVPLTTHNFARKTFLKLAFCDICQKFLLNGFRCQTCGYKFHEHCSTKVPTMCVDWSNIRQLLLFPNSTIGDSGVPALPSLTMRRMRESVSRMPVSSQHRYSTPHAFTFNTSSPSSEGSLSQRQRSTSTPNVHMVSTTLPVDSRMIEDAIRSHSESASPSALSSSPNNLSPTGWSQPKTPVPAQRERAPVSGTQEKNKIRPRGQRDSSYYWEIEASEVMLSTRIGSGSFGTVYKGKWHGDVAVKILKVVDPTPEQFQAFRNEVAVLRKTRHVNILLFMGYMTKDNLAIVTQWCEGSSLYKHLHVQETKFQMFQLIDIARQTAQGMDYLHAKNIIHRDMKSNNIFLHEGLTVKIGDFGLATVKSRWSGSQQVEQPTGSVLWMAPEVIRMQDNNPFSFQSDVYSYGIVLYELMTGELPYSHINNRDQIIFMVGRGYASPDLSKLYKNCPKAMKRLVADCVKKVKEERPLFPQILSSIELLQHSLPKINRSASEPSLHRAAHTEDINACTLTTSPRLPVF
The nature of data set [4]: AUC (0 to 24 hrs) in mouse at 10 mg, po in 20% HPbCD vehicle. Type of data set: ADME, organism-based. Conditions: plasma. Also on record: dose 10 mg, time < 24 hr, route oral.
Data set [5] can be described thus: Oral bioavailability in mouse at 10 mg. Format: ADME, organism-based. Conditions: in vivo.
Data set [6] has as its system Mus musculus. The data set is described as follows: Volume of distribution at steady state in mouse at 1 mg/kg, iv or 10 mg, po. Set-up: dose 1 mg/kg, route oral. Format: ADME, organism-based. Conditions: in vivo.
Data set [7] in a line: Plasma clearance in mouse at 10 mg, po in 20% HPbCD vehicle. Type of data set: ADME, organism-based.
Data set [8] can be described thus: Inhibition of MEK.
Data set [9] in a line: Plasma concentration in mouse xenografted with human A375M cells at 100 mg/kg, po administered as single dose in 10% HPbCD measured 24 hrs post dose by LC/MS/MS. Set-up: dose 100 mg/kg, route oral. Type of data set: ADME, organism-based. In general terms: Xenograft models place foreign cells or tissue in a host animal.
Data set [10] concerns Mus musculus. Description: Inhibition of ERK phosphorylation in human A375M cells xenografted in mouse at 100 mg/kg, po administered as single dose in 10% HPbCD measured 8 hrs post dose by Li-Cor quantitative Western blot analysis relative to control. Type of data set: functional.
Data set [11] relates to Homo sapiens. The data set is described as follows: Antitumor activity against human A375M cells xenografted mouse model assessed as partial tumor regression at 100 mg/kg, po qd for 21 days. Type of data set: functional, organism-based. Set-up: dose 100 mg/kg.
Data set [12] in a line: Plasma concentration in mouse xenografted with human A375M cells at 100 mg/kg, po administered as single dose in 10% HPbCD measured 4 hrs post dose by LC/MS/MS. Set-up: dose 100 mg/kg, route oral. Format: ADME, organism-based.
Data set [13] concerns Mus musculus. The data set is described as follows: Inhibition of ERK phosphorylation in human A375M cells xenografted in mouse at 100 mg/kg, po administered as single dose in 10% HPbCD measured 4 hrs post dose by Li-Cor quantitative Western blot analysis relative to control. Format: functional.
The nature of data set [14]: Plasma concentration in mouse xenografted with human A375M cells at 100 mg/kg, po administered as single dose in 10% HPbCD measured 8 hrs post dose by LC/MS/MS. Type of data set: ADME, organism-based. Set-up: dose 100 mg/kg, route oral.
Data set [15] has as its system Mus musculus. The data set is described as follows: Inhibition of ERK phosphorylation in human A375M cells xenografted in mouse at 100 mg/kg, po administered as single dose in 10% HPbCD measured 24 hrs post dose by Li-Cor quantitative Western blot analysis relative to control. Format: functional.
For data set [16], the system named is Mus musculus. Description: Plasma clearance in mouse at 1 mg/kg, iv and 10 mg, po in 10% HPbCD vehicle. Conditions: in vivo. Type of data set: ADME, organism-based. Set-up: dose 1 mg/kg, route oral.
The subject of data set [17] is Plasma. Description: Plasma concentration in mouse assessed as (R)-3-((methyl amino)methyl)-N-(7-(7-oxo-5,6,7,8-tetrahydro-1,8-naphthyridin-4-yloxyl)-1,2,3,4-tetrahydronaphthalen-2-yl )-5-(trifluoromethyl)benzamide at 10 mg, po. Format: ADME, organism-based. Conditions: in vivo.
Data set [18] can be described thus: AUC (0 to 24 hrs) in mouse at 10 mg, po in 10% HPbCD vehicle. Conditions: plasma. Set-up: time < 24 hr, dose 10 mg, route oral. Type of data set: ADME, organism-based.
The nature of data set [19]: Inhibition of PDGFR.
Data set [20] has as its system Mus musculus. The data set is described as follows: Inhibition of ERK phosphorylation in human A375M cells xenografted in mouse at 75 mg/kg, po administered as single dose in 10% HPbCD measured 4 hrs post dose by Li-Cor quantitative Western blot analysis relative to control. Format: functional.
The nature of data set [21]: Plasma concentration in mouse xenografted with human A375M cells at 75 mg/kg, po administered as single dose in 10% HPbCD measured 4 hrs post dose by LC/MS/MS. Format: ADME, organism-based. Also on record: dose 75 mg/kg, route oral.
Data set [22] concerns Mus musculus. The data set is described as follows: Inhibition of ERK phosphorylation in human A375M cells xenografted in mouse at 75 mg/kg, po administered as single dose in 10% HPbCD measured 8 hrs post dose by Li-Cor quantitative Western blot analysis relative to control. Format: functional.
The test system of data set [23] is Mus musculus. The data set is described as follows: Inhibition of ERK phosphorylation in human A375M cells xenografted in mouse at 75 mg/kg, po administered as single dose in 10% HPbCD measured 24 hrs post dose by Li-Cor quantitative Western blot analysis relative to control. Type of data set: functional.
Data set [24] has as its system Homo sapiens. Description: Antitumor activity against human A375M cells xenografted mouse model assessed as partial tumor regression at 75 mg/kg, po qd for 21 days. Format: functional, organism-based. Also on record: dose 75 mg/kg.
Data set [25] can be described thus: Plasma concentration in mouse xenografted with human A375M cells at 75 mg/kg, po administered as single dose in 10% HPbCD measured 24 hrs post dose by LC/MS/MS. Type of data set: ADME, organism-based. Set-up: dose 75 mg/kg, route oral.
Data set [26] can be described thus: Plasma concentration in mouse xenografted with human A375M cells at 75 mg/kg, po administered as single dose in 10% HPbCD measured 8 hrs post dose by LC/MS/MS. Format: ADME, organism-based. Set-up: dose 75 mg/kg, route oral.

T1 sequence (P15056 2-766 V600E limits assumed): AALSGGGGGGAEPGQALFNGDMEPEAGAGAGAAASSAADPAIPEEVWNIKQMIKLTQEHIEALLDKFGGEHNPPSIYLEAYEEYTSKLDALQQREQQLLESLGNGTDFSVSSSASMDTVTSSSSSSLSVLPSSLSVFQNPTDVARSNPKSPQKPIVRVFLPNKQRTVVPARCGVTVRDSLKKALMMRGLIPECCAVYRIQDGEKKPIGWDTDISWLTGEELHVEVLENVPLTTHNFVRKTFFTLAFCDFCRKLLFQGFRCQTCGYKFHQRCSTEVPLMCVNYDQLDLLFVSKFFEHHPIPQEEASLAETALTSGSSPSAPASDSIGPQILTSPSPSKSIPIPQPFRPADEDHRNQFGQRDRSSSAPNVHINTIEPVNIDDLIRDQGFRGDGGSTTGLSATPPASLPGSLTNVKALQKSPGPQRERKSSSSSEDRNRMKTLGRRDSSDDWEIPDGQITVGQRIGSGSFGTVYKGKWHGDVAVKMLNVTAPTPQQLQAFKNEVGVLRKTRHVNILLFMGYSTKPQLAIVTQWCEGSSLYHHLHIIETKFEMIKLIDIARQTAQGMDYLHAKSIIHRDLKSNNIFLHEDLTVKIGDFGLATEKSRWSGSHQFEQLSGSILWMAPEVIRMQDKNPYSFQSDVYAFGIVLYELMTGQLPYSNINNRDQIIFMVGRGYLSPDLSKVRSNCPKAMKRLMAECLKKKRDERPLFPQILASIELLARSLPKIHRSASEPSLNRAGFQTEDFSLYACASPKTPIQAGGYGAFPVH

As a reminder, the IC50 is the midpoint of a concentration-inhibition curve. As to `CC(C)(N)c1cc(NC(=O)[C@H]2CCc3ccc(Oc4ccnc5c4CCC(=O)N5)cc3C2)cc(C(F)(F)F)c1`, the IC50 in data set [1] was found to be 79 nM.
As for `CNC(=O)c1cc(Oc2ccc(CCC(=O)Nc3ccc(Cl)c(C(F)(F)F)c3)cc2)ccn1`, the IC50 in data set [2] is 61 nM; in data set [1], over 25000 nM; in data set [3] it was 10 nM.
The corresponding values for `CNC(=O)c1cc(Oc2ccc3c(c2)CC(C(=O)Nc2cc(CN)cc(C(F)(F)F)c2)CC3)ccn1` (stereo unspecified) are 20 nM, 1400 nM and 11 nM.
The corresponding values for `NCc1cc(NC(=O)[C@@H]2CCc3ccc(Oc4ccnc(NC(=O)C5CC5)c4)cc3C2)cc(C(F)(F)F)c1` are 6 nM, 780 nM and 6 nM.
On to `CNC(=O)c1cc(Oc2ccc3c(c2)CC(C(=O)Nc2ccc(CN)c(C(F)(F)F)c2)CC3)ccn1` (stereo unspecified), for which the IC50 in [2] was 26 nM; in data set [1], 5000 nM; in [3] it was 16 nM.
The matching figures for `CNC(=O)c1cc(Oc2ccc3c(c2)CC(C(=O)Nc2ccc(Cl)c(C(F)(F)F)c2)CC3)ccn1` (racemic): 32 nM, 2900 nM and 28 nM.
The term AUC(0-t) denotes the area under the concentration-time curve up to a stated or last time point. In turn, `CC(C)NCc1cc(NC(=O)C2CCc3ccc(Oc4ccnc(NC(=O)C5CC5)c4)cc3C2)cc(C(F)(F)F)c1` (stereo unspecified) gave an AUC(0-t) at 24 h in data set [4] of 15.6 µM·h. Besides, the IC50 amounted to 5 nM in data set [2], 190 nM in data set [1] and 4.6 nM in data set [3].
With `NCc1cc(NC(=O)[C@H]2CCc3ccc(Oc4ccnc(NC(=O)C5CC5)c4)cc3C2)cc(C(F)(F)F)c1`, the figures for the IC50 in data set [2], in data set [1] and in [3] were 5 nM, 130 nM and 4.5 nM, respectively.
The bioavailability is dose-corrected exposure relative to a reference, in per cent. Read a high bioavailability as good availability. The CL/F is the apparent clearance, not corrected for the fraction that reaches the circulation. With `CN(C)Cc1cc(NC(=O)[C@H]2CCc3ccc(Oc4ccnc(NC(=O)C5CC5)c4)cc3C2)cc(C(F)(F)F)c1`, the exposure AUC(0-t) at 24 h in [4] came to 2.87 µM·h. The figures for the IC50 in data set [2], in data set [1] and in [3] were 4 nM, 130 nM and 3.3 nM, respectively. In data set [5], this compound displayed a bioavailability of 27%. Besides, the Vdss in [6] is 6.07 L/kg. This compound showed an apparent clearance (CL/F) in [7] of 23.5 mL/min/kg.
One may read the inhibition in vivo as how much of the control response was suppressed. Read a low inhibition in vivo as a weak effect. As to `CN(C)Cc1cc(C(=O)N[C@@H]2CCc3ccc(Oc4ccnc5c4CCC(=O)N5)cc3C2)cc(C(F)(F)F)c1`, the figures for the IC50 in data set [8] and in data set [19] were over 10000 nM and 1100 nM, respectively. In [9], this compound gave a concentration at 24 h of 0.4 µM. In addition, the inhibition in vivo at 100 mg/kg in data set [10] was determined as 92%; in [13], 93%; in data set [15], 72%. Moreover, in data set [11], the outcome was Active. The concentration at 4 h in data set [12] stood at 28 µM. This compound also came in with a concentration at 8 h in data set [14] of 29 µM. This compound yielded a bioavailability in data set [5] of 100%. This compound displayed a CL in [16] of 3.83 mL/min/kg. The Drug uptake in data set [17] is reported as 30%. In [6], the Vdss amounted to 0.75 L/kg. For the same compound, in [18], the AUC(0-t) at 24 h was found to be 98.6 µM·h.
Consider `CNC(=O)c1cc(Oc2cccc(CCC(=O)Nc3ccc(Cl)c(C(F)(F)F)c3)c2)ccn1`, for which the values for the concentration for half-maximal inhibition (IC50) in [2], in [1] and in data set [3] were 47 nM, over 25000 nM and 9 nM, respectively.
As for `CN(C)Cc1cc(C(=O)N[C@H]2CCc3ccc(Oc4ccnc(NC(=O)C5CC5)c4)cc3C2)cc(C(F)(F)F)c1`, the IC50 amounted to 3.2 nM in data set [2] and 1100 nM in data set [1].
Turning to `CNCc1cc(C(=O)N[C@@H]2CCc3ccc(Oc4ccnc5c4CCC(=O)N5)cc3C2)cc(C(F)(F)F)c1`, in [5], the bioavailability was 50%. Moreover, in data set [16], the CL turned out to be 12.2 mL/min/kg. The same compound displayed a Vdss in [6] of 0.75 L/kg. Besides, the AUC(0-t) at 24 h in data set [18] came out at 12.4 µM·h.
`CN(C)Cc1cc(C(=O)N[C@@H]2CCc3ccc(Oc4ccnc(NC(=O)C5CC5)c4)cc3C2)cc(C(F)(F)F)c1`: the IC50 in data set [2] was 2.9 nM; in [1] it was 70 nM. Further, the bioavailability in data set [5] stood at 22%. Besides, the CL in data set [16] was 35.7 mL/min/kg. Further, the Vdss in data set [6] worked out at 2.19 L/kg. The AUC(0-t) at 24 h in data set [18] was 0.51 µM·h.
For the compound `CC(=O)Nc1cc(Oc2ccc3c(c2)C[C@@H](C(=O)Nc2cc(CN)cc(C(F)(F)F)c2)CC3)ccn1`, the IC50 in [3] turned out to be 6 nM.
Regarding `CC(C)(N)c1cc(C(=O)N[C@@H]2CCc3ccc(Oc4ccnc5c4CCC(=O)N5)cc3C2)cc(C(F)(F)F)c1`, the IC50 in [8] came to 1400 nM; in [19] it was 47 nM. Moreover, the inhibition in vivo at 75 mg/kg in data set [20] was 87%; in data set [22], 90%; in data set [23], 83%. In [21], this compound had a concentration at 4 h of 23 µM. Further, the bioavailability in data set [5] came to 85%. The same compound gave a CL in data set [16] of 7.33 mL/min/kg. The Vdss in data set [6] was 3.93 L/kg. In data set [18], this compound gave an AUC(0-t) at 24 h of 35.9 µM·h. Also, in data set [24], the outcome was Active. This compound gave a concentration at 24 h in data set [25] of 3 µM. In addition, the concentration at 8 h in data set [26] was found to be 27 µM.
Consider `NCc1cc(NC(=O)C2CCc3ccc(Oc4ccnc(NC(=O)C5CC5)c4)cc3C2)cc(C(F)(F)F)c1` (stereo unspecified), for which the area under the curve AUC(0-t) at 24 h in [4] is 0.58 µM·h. The IC50 in data set [2] worked out at 8 nM; in data set [1], 150 nM; in data set [3], 6.2 nM. Moreover, the bioavailability in data set [5] amounted to 1.9%. Besides, the Vdss in [6] amounted to 6.4 L/kg. This compound also gave a CL/F in data set [7] of 6.67 mL/min/kg.
As to `CC(C)NCc1cc(NC(=O)[C@H]2CCc3ccc(Oc4ccnc5c4CCC(=O)N5)cc3C2)cc(C(F)(F)F)c1`, the IC50 was determined as 3.3 nM in data set [2] and 110 nM in [1]. For the same compound, in [5], the bioavailability stood at 20%. In addition, the CL in [16] is 5.33 mL/min/kg. In data set [6], the Vdss was determined as 3.87 L/kg. In addition, the exposure AUC(0-t) at 24 h in [18] amounted to 20.7 µM·h.
